Experimental data as given in ChEMBL document CHEMBL4765455, “Design, synthesis, and biological evaluations of novel 3-amino-4-ethynyl indazole derivatives as Bcr-Abl kinase inhibitors with potent cellular antileukemic activity” (Eur J Med Chem, 2020).

What was measured:
Homo sapiens [1] = species on record: Homo sapiens; assay: Selectivity index, ratio of IC50 for c-Src (unknown origin) to IC50 for Bcr-Abl (unknown origin)
Bcr/Abl fusion protein [2] = biological target: Bcr/Abl fusion protein (Homo sapiens, UniProt P00519, T315I); assay: Inhibition of BCR-ABL T315I mutant (unknown origin) incubated for 40 mins in presence of [gamma33P]ATP by scintillation method; format: protein assay
[3] = biological target: Macrophage colony-stimulating factor 1 receptor (Homo sapiens, UniProt P07333); assay: Inhibition of FMS (unknown origin) at 1 uM relative to control
Chain of Macrophage colony-stimulating factor 1 receptor (P07333 whole entry): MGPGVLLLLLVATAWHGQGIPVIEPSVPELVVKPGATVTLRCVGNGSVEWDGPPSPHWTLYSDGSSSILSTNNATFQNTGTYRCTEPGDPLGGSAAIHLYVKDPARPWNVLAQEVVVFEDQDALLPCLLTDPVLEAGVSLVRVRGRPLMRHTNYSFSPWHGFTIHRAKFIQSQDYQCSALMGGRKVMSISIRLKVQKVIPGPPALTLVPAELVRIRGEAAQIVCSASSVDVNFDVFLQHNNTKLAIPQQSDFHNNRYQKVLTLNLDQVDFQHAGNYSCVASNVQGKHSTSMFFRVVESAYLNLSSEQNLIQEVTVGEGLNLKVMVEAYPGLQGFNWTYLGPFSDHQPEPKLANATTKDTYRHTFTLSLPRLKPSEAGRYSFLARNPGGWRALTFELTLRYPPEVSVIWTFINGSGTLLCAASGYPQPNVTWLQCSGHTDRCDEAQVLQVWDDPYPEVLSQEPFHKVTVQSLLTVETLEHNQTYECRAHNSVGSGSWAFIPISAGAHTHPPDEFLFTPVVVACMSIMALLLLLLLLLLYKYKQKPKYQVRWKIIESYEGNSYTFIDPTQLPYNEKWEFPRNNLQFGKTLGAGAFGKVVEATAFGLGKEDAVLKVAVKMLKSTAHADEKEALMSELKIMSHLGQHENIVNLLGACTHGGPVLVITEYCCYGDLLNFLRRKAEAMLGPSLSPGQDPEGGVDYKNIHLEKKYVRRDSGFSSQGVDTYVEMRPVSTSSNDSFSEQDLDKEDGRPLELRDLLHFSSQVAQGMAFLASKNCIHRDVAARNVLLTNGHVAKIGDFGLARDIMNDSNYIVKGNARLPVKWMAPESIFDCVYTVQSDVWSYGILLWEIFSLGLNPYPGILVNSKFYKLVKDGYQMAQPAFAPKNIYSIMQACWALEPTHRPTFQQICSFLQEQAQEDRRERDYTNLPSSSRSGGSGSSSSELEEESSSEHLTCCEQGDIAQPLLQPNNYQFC

MOLT-4 = assay: Antiproliferative activity against human MOLT-4 cells assessed as cell growth inhibition measured after 48 hrs by SRB assay; format: functional
[4] = biological target: Receptor-type tyrosine-protein kinase FLT3 (Homo sapiens, UniProt P36888); assay: Inhibition of FLT3 (unknown origin) in presence of ATP
Chain of Receptor-type tyrosine-protein kinase FLT3 (P36888 whole entry): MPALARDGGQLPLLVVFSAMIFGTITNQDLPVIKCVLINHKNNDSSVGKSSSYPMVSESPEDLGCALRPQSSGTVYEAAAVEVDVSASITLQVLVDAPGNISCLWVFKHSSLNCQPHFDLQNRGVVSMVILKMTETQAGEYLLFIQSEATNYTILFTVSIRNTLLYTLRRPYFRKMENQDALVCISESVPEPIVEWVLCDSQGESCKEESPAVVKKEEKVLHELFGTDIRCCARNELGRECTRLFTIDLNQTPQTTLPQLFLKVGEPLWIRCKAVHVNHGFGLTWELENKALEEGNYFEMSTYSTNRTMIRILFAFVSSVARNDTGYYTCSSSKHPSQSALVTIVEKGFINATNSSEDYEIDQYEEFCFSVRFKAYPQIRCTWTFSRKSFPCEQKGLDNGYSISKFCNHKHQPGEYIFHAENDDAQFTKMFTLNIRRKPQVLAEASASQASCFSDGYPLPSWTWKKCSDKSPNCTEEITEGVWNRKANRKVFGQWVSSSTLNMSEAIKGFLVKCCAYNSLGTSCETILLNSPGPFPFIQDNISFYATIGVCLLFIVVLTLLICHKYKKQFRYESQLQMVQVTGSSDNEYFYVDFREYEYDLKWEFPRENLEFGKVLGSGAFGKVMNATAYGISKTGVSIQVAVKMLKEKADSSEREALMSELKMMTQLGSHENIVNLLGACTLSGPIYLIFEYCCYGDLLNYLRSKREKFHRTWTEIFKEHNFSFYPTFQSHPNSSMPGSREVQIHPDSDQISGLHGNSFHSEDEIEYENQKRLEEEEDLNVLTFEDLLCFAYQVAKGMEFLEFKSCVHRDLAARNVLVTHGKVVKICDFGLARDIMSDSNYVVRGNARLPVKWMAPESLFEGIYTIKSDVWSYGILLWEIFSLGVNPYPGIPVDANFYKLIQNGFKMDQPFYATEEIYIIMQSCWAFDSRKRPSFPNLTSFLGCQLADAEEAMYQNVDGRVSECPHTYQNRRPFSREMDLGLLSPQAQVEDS

Homo sapiens [5] = species on record: Homo sapiens; assay: Selectivity index, ratio of IC50 for BRAF (unknown origin) to IC50 for Bcr-Abl (unknown origin)
[6] = biological target: Dual specificity mitogen-activated protein kinase kinase 1 (Homo sapiens) (UniProt Q02750); assay: Inhibition of MEK1 (unknown origin) at 1 uM relative to control
Chain of Dual specificity mitogen-activated protein kinase kinase 1 (Homo sapiens) (Q02750 whole entry): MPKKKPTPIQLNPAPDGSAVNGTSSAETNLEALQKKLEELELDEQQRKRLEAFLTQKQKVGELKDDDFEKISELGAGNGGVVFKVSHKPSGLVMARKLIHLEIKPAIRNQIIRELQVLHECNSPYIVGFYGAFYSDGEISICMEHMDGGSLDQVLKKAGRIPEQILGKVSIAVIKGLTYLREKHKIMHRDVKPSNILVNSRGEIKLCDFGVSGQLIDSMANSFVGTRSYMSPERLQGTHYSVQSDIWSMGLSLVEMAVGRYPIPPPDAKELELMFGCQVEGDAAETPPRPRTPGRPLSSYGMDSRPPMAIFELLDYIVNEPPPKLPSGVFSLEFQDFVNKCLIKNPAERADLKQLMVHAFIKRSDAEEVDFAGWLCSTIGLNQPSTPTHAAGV

[7] = biological target: Serine/threonine-protein kinase B-raf (Homo sapiens, UniProt P15056); assay: Inhibition of BRAF (unknown origin) in presence of ATP
Chain of Serine/threonine-protein kinase B-raf (P15056 whole entry): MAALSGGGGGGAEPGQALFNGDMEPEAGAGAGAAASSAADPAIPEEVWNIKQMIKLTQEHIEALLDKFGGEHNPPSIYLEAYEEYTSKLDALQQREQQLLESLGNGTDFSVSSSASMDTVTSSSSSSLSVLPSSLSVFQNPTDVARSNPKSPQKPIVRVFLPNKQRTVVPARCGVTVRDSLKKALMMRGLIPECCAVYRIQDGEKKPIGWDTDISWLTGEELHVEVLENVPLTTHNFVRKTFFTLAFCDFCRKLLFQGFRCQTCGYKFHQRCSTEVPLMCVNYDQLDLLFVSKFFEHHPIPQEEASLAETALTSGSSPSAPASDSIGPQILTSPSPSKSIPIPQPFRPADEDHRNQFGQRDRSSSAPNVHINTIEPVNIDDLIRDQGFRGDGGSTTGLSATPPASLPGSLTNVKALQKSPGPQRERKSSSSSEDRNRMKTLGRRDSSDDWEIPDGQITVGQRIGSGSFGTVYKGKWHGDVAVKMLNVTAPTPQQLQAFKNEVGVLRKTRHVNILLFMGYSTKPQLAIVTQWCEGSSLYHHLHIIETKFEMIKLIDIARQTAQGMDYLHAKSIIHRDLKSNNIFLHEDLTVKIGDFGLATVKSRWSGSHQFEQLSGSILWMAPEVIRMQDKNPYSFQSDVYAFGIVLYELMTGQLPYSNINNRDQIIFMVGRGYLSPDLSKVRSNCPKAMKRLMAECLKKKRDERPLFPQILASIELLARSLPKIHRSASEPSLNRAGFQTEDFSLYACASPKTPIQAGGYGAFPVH

[8] = biological target: Proto-oncogene tyrosine-protein kinase Src (Homo sapiens, UniProt P12931); assay: Inhibition of c-Src (unknown origin) at 1 uM relative to control
Chain of Proto-oncogene tyrosine-protein kinase Src (P12931 2-536 limits assumed): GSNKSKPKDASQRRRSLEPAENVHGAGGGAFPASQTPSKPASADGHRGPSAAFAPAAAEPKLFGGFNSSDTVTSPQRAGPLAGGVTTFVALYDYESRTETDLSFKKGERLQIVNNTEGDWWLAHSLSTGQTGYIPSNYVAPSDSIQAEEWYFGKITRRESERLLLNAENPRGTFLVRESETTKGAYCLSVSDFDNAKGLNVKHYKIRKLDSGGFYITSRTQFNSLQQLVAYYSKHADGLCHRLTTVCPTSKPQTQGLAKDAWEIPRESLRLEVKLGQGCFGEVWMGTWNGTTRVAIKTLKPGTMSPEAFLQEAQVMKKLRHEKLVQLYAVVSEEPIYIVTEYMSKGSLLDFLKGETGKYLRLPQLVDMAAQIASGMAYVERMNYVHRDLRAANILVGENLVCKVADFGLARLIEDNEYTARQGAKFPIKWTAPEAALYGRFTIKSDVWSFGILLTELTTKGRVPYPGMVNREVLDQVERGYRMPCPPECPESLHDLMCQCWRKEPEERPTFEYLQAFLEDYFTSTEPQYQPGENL

RPMI-8226 = assay: Antiproliferative activity against human RPMI-8226 cells assessed as cell growth inhibition at 10 uM measured after 48 hrs by SRB assay relative to control; format: functional; details: read-out: GI
[9] = biological target: Serine/threonine-protein kinase Chk1 (Homo sapiens) (UniProt O14757); assay: Inhibition of CHK1 (unknown origin) at 1 uM relative to control
Chain of Serine/threonine-protein kinase Chk1 (Homo sapiens) (O14757 whole entry): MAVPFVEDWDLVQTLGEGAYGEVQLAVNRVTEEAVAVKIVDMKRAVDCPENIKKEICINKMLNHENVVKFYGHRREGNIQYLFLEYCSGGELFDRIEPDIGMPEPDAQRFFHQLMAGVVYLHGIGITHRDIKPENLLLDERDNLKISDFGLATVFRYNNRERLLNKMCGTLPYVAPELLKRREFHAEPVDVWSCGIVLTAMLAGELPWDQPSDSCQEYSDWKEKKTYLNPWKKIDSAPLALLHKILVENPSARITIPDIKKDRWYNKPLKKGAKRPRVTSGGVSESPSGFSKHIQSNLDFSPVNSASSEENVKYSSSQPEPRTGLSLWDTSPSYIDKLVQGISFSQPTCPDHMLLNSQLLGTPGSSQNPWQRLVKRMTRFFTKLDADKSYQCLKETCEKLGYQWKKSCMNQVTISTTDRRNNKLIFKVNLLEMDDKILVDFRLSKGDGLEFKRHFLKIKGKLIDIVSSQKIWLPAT

[10] = biological target: Cyclin-dependent kinase 4/cyclin D1 (Homo sapiens) (UniProt P11802+P24385); assay: Inhibition of CDK4/cyclinD1 (unknown origin) at 1 uM relative to control; format: protein-complex assay
K562 = assay: Antiproliferative activity against human K562 cells assessed as cell growth inhibition at 10 uM measured after 48 hrs by SRB assay relative to control; format: functional; details: read-out: GI
[11] = Mean residence time in ICR mouse at 5 mg/kg, iv measured up to 8 hrs by LC-MS/MS analysis; format: ADME, organism-based; details: in vivo
[12] = biological target: Bcr/Abl fusion protein (Homo sapiens) (UniProt P00519+P11274); assay: Inhibition of Bcr-Abl in human K562 cells assessed as reduction in Bcr-Abl phosphorylation incubated for 1 hr by Western blotting analysis; format: cell-based; details: dose 0.003-0.3 µM
Bcr/Abl fusion protein [13] = biological target: Bcr/Abl fusion protein (Homo sapiens, UniProt P00519); assay: Inhibition of wild type BCR-ABL (unknown origin) incubated for 40 mins in presence of [gamma33P]ATP by scintillation method; format: protein assay

`Nc1n[nH]c2cccc(C#Cc3cccc(NC(=O)c4ccc(N5CCOCC5)c(C(F)(F)F)c4)c3)c12` showed a Ratio IC50 (Homo sapiens [1]) of 14.3, an IC50 (Bcr/Abl fusion protein [2]) of 227 nM and an inhibition [3] of 87.8%. The GI50 (MOLT-4) was 1310 nM, the IC50 [4] was 535 nM and the Ratio IC50 (Homo sapiens [5]) was 26.5. For the same molecule, the inhibition [6] was under 30%, the IC50 [7] was 122 nM and the inhibition [8] was 87.8%. The inhibition of growth at 10 µM (RPMI-8226) was over 100%, the inhibition [9] was under 30% and the inhibition [10] was under 30%. The inhibition of growth at 10 µM (K562) was 99%, the MRT [11] was 4.7 h and the Activity [12] was “Dose-dependent effect”. It also gave an IC50 (Bcr/Abl fusion protein [13]) of 4.6 nM.
